# Measurements published in patent US9295722B2, “Bacterial glycolipid activation of CD1d-restricted NKT cells” (priority 2005, dated 2016).
# Tests used:
# Assay type in all cases: cell-based
# mouse NKT cells [1] = experiment: mouse CD1d tetramer-sorted NKT cells co-cultured with bone marrow derived DC, IFN-γ ELISA; details: co-cultured with CD1+/− or CD1−/− DC; 48 hrs
# Protocol: (§1) Bacterial strains Sphingomonas capsulata (ATCC 14666) and Salmonella typhimurium R71 were grown in Mueller-Hinton Agar. Ehrlichia muris were prepared as described by Ismail N et al., J. Immunol. 172, 1786-1800 (2004), incorporated herein by reference. Bacteria were heat killed by 2-hour exposure to 74° C. and 2.5-5×10^6 cfu equivalent/well were used for in vitro stimulation.
# Stimulation assays were performed with whole spleen cells (5×10^5 per 200 μl well) or with purified T cells and antigen presenting cells. […]
# (§2) NKT cells were stimulated with heat-killed bacteria as indicated above for 48 hrs in 96 well round bottom plates in RPMI 1640 (Biofluids) supplemented with glutamine, antibiotics, 5×10^−5 M 2-ME and 10% FCS (mouse studies) or 5% AB serum (human studies). Concentrations of mouse and human IFN-γ. in the supernatant were measured at 48 hours using the respective ELISA kits (BD Bioscience, lower detection limit of 12.5 pg/ml).
# Whole spleen cells co-cultured with DC of genotype MyD88^−/−, Trif^lps2/lps2 and MyD88^−/−Trif^lps2/lps2 (lacking one or the two adaptors MyD88 and TRIF for TLR signaling) or CD1^−/− were stimulated for 48 hours with 5×10^6 heat killed Salmonella, Sphingomonas or Ehrlichia. Concentrations of mouse and human IFN-γ. in the supernatant were measured at 48 hours using the respective ELISA kits (BD Bioscience, lower detection limit of 12.5 pg/ml).
# human NKT cells [2] = experiment: human NKT cells co-cultured with PBMC-derived DC, IFN-γ ELISA; details: blocking with 1 μg/mL anti-CD1d antibodies or control IgG1
# Protocol: as §1
# Stimulation assays were performed with whole spleen cells (5×10^5 per 200 μl well) or with purified T cells and antigen presenting cells. T cell populations used in the assays comprised sorted CD1d-Gal-Cer+ mouse spleen cells (5×10^4 per 200 μl well), human peripheral blood lymphocytes (PBL) (5×10^5 per 200 μl well) (obtained after Ficoll centrifugation of heparinized blood) or human NKT cell lines (2.5×10^5 per 200 μl well). […]
# as §2
# NKT cells = experiment: activation of NKT cells in vitro by synthetic glycolipids
# From the text: Activation of NKT cells may be measured in vitro or ex vivo by any suitable method. An example of an in vitro test permitting evaluation of NKT cell activation is co-culturing NKT cells with antigen presenting cells (APC), such as dendritic cells (DC), in the presence of a bacterial glycolipid activator or putative activator, and subsequently assaying for IFN-γ or other secreted cytokines in the supernatant. Alternatively, activation of NKT cells can be measured ex vivo by administering a bacterial glycolipid antigen to a subject or by administering CD1d^+ antigen presenting cells after ex vivo contact with bacterial glycolipids to a subject. The NKT cells from these subjects can be isolated by, e.g., CD1d-tetramer staining and gating via flow cytometry, and subsequently assayed for surface CD69 (early T-cell activation antigen) and/or intracellular IFN-γ by suitable methods.
# Some representative examples of suitable bacterial glycolipids for complexing with CD1d molecules and activating NKT cells are depicted in FIG. 5. […] The remaining compounds depicted in FIG. 5 were rationally designed based on the following features determined to be common among glycolipids capable of activating NKT cells: 1) an alpha-type glycosidic linkage and 2) oxidation at the 6-position on the carbohydrate moiety of the glycolipid.
# [3] = tested on: human Vα24-Jα18 NKT cells; experiment: human Vα24-Jα18 NKT cells co-cultured with DC pulsed with synthetic glycolipid; details: for IFN-γ secretion: DC pulsed with 0.001 to 1000 ng/mL glycolipid, 48 hours
# Protocol: (§3) Stimulation assays were performed with whole spleen cells (5×10^5 per 200 μl well) or with purified T cells and antigen presenting cells. T cell populations used in the assays comprised sorted CD1d-Gal-Cer+ mouse spleen cells (5×10^4 per 200 μl well), human peripheral blood lymphocytes (PBL) (5×10^5 per 200 μl well) (obtained after Ficoll centrifugation of heparinized blood) or human NKT cell lines (2.5×10^5 per 200 μl well). Human Vα24 NKT cells were derived from PBL stimulated with αGal-Cer and were maintained by repeated rounds of stimulation with PHA and IL-2 in the presence of irradiated PBMC and EBV transformed B cells in vitro. Antigen presenting cells were dendritic cells that were derived from bone marrow, stimulated with GMCSF/IL-4 (2 ng/mL and 5 ng/mL, Biosource) and cultured at 2.5×10^5 per 200 μl well for mouse assays, and irradiated allogeneic human PBMC fresh or cultured for 5 days with recombinant human GMCSF/IL-4, ([…] of each cytokine, R&D Systems) (2×10^5 per 200 μl well) for human assays. Cells were washed twice and starved for 6 hours in medium alone before addition to the stimulation experiments.
# as §2
# (§4) The immunological properties of the above compounds in NKT cells were measured. Human Vα24-Jα18 NKT cells and fresh purified mouse NKT cells were co-cultured with DC pulsed with αGal-Cer or synthetic glycolipid at concentrations ranging from 0.001 to 1000 ng/mL. IFN-γ production was measured at 48 hours as described above.
# mouse NKT cells [4] = experiment: fresh purified mouse NKT cells co-cultured with DC pulsed with synthetic glycolipid; details: for IFN-γ secretion: DC pulsed with 0.001 to 1000 ng/mL glycolipid, 48 hours
# Protocol: as §3, §2, §4
# human NKT cells [5] = experiment: CD1d-glycolipid tetramer staining of human NKT cells
# Protocol: (§5) At 6 days post stimulation, CD1d-αGal-Cer, CFSE and αB220 (BD Pharmingen) labeling and staining procedures were performed and cells were analyzed by FACS. To generate CD1d-αGal-Cer tetramers, a mixture of 5 μl of αGal-Cer (from 1 mg/ml stock solution in DMSO), 10 μl of PBS 0.5% Tween 20, 10 μl of biotinylated CD1d (1 mg/ml), and 75 μl of PBS was incubated at 37° C. for 1 hr, and lipid-loaded CD1d was purified by centrifugation dialysis and complexed with streptavidin-APC. (Benlagha K. et al., J. Exp. Med. 191, 1895-1903 (2000).) Cells were analyzed on a FACSCalibur (BD Biosciences) with CellQuest software.
# (§6) CD1d tetramers were prepared as described in Example 1 using synthetic glycolipids PBS 30, PBS 59 and PBS 50 and αGal-Cer, and were used to stain human NKT cells and mouse spleen cells.
# mouse NKT cells [6] = experiment: CD1d-glycolipid tetramer staining of mouse spleen cells
# Protocol: as §5, §6
compound,measurement,setting,value
"CCCCCCCCCCCCCCCCCCCCCCCCCC(=O)N[C@@H](CO[C@H]1O[C@H](CO)[C@H](O)[C@H](O)[C@H]1O)[C@H](O)[C@H](O)CCCCCCCCCCCCCC [αGal-Cer, α-galactosylceramide]",IFN-γ secretion by mouse NKT cells,mouse NKT cells [1],secreted IFN-γ in a CD1d-dependent manner
same,IFN-γ secretion by human NKT cells,human NKT cells [2],CD1d-dependent IFN-γ secretion
α-glucuronosylceramide [PBS 30],activation of NKT cells,NKT cells,found to activate NKT cells
same,NKT cell proliferation,[3],strongly activated
same,IFN-γ secretion,[3],strongly activated
same,NKT cell proliferation,mouse NKT cells [4],strongly activated
same,IFN-γ secretion,mouse NKT cells [4],strongly activated
same,human NKT cells stained by CD1d-glycolipid tetramers,human NKT cells [5],all
same,mouse NKT cells stained by CD1d-glycolipid tetramers,mouse NKT cells [6],~25%
α-galacturonosylceramide [PBS 59],activation of NKT cells,NKT cells,found to activate NKT cells
same,NKT cell proliferation,[3],strongly activated
same,IFN-γ secretion,[3],strongly activated
same,NKT cell proliferation,mouse NKT cells [4],strongly activated
same,IFN-γ secretion,mouse NKT cells [4],strongly activated
"β-glucuronosylceramide [PBS 50, reference compound]",activation of NKT cells,NKT cells,do not activate NKT cells
same,NKT cell proliferation,[3],did not
same,IFN-γ secretion,[3],did not
same,NKT cell proliferation,mouse NKT cells [4],did not
same,IFN-γ secretion,mouse NKT cells [4],did not
